Data published in patent publication US20250188080A1, “IMIDAZOLONYLQUINOLINE COMPOUNDS AND THERAPEUTIC USES THEREOF” (Merck Patent GmbH, priority 2019, published 2025).

What was measured:
[1] = molecular target: T1, human phosphodiesterase-4A1A (Homo sapiens, UniProt P27815); test: PDE4A1A assay (Cerep); format: biochemical
T1 construct: purchased Cerep 4074; host or cells: Sf9 cells
Procedure: A commercially available assay of Cerep was used (Catalog ref. 4074; SOP no 1C1056), which is designed to evaluate the effects of compounds on the activity of the human phosphodiesterase-4A1A quantified by measuring the formation of 5′AMP from cAMP using a human recombinant enzyme expressed in Sf9 cells.
The test compound, reference compound or water (control) are added to a buffer containing 40 mM Tris/HCl (pH 7.4) and 8 mM MgCl2, 450 nM cAMP and 0.25 μCi [^3H]cAMP.
Thereafter, the reaction is initiated by addition of the enzyme (about 10 U) and the mixture is incubated for 20 min at 22° C.
(§1) For basal control measurements, the enzyme is omitted from the reaction mixture.
(§2) Following incubation SPA beads are added.
(§3) After 30 min at 22° C. under shaking, the amount of [^3H]5′AMP is quantified with a scintillation counter (Topcount, Packard).
(§4) The results are expressed as a percent inhibition of the control enzyme activity.
The standard inhibitory reference compound is Ro 20-1724, which is tested in each experiment at several concentrations to obtain an inhibition curve from which its IC50 value is calculated.

[2] = system: pCHK2 (Cellular mechanistic ATM, HCT-116); test: Cellular pCHK2 assay (bleomycin-induced phospho-Thr68 CHK2); format: cell-based, human
From the text: For the identification of substances which inhibit the phosphorylation of the protein kinase CHK2 (checkpoint kinase 2) at the amino acid threonine 68, an immunofluorescence-based “high content” analysis assay was used in HCT116 cells. In vitro cell-based immunofluorescence assay for the identification of inhibitors of bleomycin-induced phosphorylation of CHK2 (phospho-Thr68) in the human colon carcinoma cell line HCT116: HCT116 cells are sown out in a defined cell density in 384-well plates in culture medium (DMEM high glucose, 2 mM GlutaMax, 1 mM Na pyruvate, 10% FCS) and incubated overnight at 37° C. and 10% of CO2. On the following day, the test substances are added in a defined concentration range (1 nM to 30 μM) in combination with 10 μM bleomycin, where the concentration of the solvent DMSO is kept constant at 0.5%. After incubation for four hours at 37° C. and 10% of CO2, the cells are fixed (5 min, 4% formaldehyde in PBS), permeabilised (10 min, 0.2% Triton X-100 in PBS) and, after blocking of nonspecific binding sites (10% goat serum, 1% BSA in PBS), incubated overnight at 4° C. with a specific anti-pCHK2 antibody (cell signaling #2661). pCHK2 (Thr68) is determined using an Alexa488-labelled secondary anti-rabbit IgG antibody. Parallel staining of DNA with propidium iodide enables determination of the cell count. The pCHK2 signal is detected using a high-content imager (Molecular Devices IMX Ultra) and automatic image analysis using the MetaXpress software belonging to the instrument. The number of cell nuclei which have a pCHK2 signal above a defined background is determined.

[3] = Microsomal stability (intrinsic clearance), rat; format: in vitro ADME; conditions: for microsomal CLint: liver microsomes
From the text: A microsomal stability assay is used to measure in vitro clearance (Clint). The assay involves measuring the rate of disappearance of a compound due to its intrinsic attitude to be metabolized (“intrinsic” meaning that the disappearance is not affected by other properties like permeability, binding etc. that play a role when quantifying in vivo clearance). The microsomal stability (intrinsic clearance, Clint) and, thus, metabolic stability is generally given as μl/min/mg protein. It can be visualized as the volume of solution that 1 mg of microsomes is able to clear of the compound in one minute. The microsomal/metabolic stability of each compound was determined by measurement of the change in LC-MS/MS peak area over time. Data are fitted according to a log linear model in line with Michaelis/Menten. The Clint value is calculated from the slope (k) of the linear log transformed concentration per time plot divided by the amount of microsomes (0.5 mg/ml): Clint (μl/min/mg protein)=k*1000/protein concentration. Assay Explorer software was used to automatically calculate the slope k of the decline.

[4] = molecular target: human phosphodiesterase-2A1 (Homo sapiens, UniProt O00408); test: PDE2A1 assay (Cerep); format: biochemical
Procedure: A commercially available assay was used (Cerep, catalog ref. 4071, SOP no 1C1054), which is designed to evaluate the effects of compounds on the activity of the human phosphodiesterase-2A1 quantified by measuring the formation of 5′AMP from cAMP using a human recombinant enzyme expressed in Sf9 cells.
The test compound, reference compound or water (control) are added to a buffer containing 40 mM Tris/HCl (pH 7.4), 8 mM MgCl2 and 1.7 mM EGTA/NaOH, 1.8 μM cAMP and 1 μCi [^3H]cAMP.
Thereafter, the reaction is initiated by addition of the enzyme (about 2.5 U) and the mixture is incubated for 20 min at 22° C.
as §1, §2, §3, §4
The standard inhibitory reference compound is EHNA (erythro-9-(2-hydroxy-3-nonyl) adenine), which is tested in each experiment at several concentrations to obtain an inhibition curve from which its IC50 value is calculated.

[5] = system: pCHK1 (Cellular mechanistic ATR, HCT-116); test: pCHK1 cellular assay; format: cell-based, human
[6] = system: pDNA-PK (Cellular mechanistic DNA-PK, HCT-116); test: pDNA-PK cellular assay; format: cell-based, human; conditions: HCT-116, 10 μM bleomycin
Procedure: HCT116 cells are cultured in MEM alpha medium with 10% fetal calf serum and 2 mM glutamine at 37° C. and 10% CO2. The cells were detached from the bottom of the culture vessels using trypsin/EDTA, centrifuged in centrifuge tubes, taken up in fresh medium and the cell density was determined. 100,000 cells were seeded in 1 ml of culture medium per well of a 24-well cell culture plate and cultured overnight. The next day, 10 μM bleomycin (DNA intercalator and DNA double-strand breaker inducer) and the test substances in fresh culture medium were added to the cells and cultured for a further six hours. Cell lysis was then performed and the cell lysates were spotted on a 96-well ELISA plate (Sigma-Aldrich WH0005591M2: total DNA-PK, Abcam ab18192 or Epitomics EM09912: phospho-serine 2056 DNA-PK), which was blocked and coated with DNA-PK specific antibody, and incubated at 4° C. overnight. Subsequently, the 96-well ELISA plates were treated with a detection antibody (Abcam ab79444: total DNA-PK) and a streptavidin-HRP conjugate. The development of the enzymatic reaction was carried out using a chemiluminescent reagent, the chemiluminescence was measured using the Mithras LB940. The signals with the phospho-DNA-PK specific antibody were normalized to the signal with the antibody against the whole protein DNA-PKc. […] The DMSO control was used as blank.

[7] = Homo sapiens, HCT-116, HCT-116 as printed in the table

T1 sequence (P27815 1-647 isoform P27815-4): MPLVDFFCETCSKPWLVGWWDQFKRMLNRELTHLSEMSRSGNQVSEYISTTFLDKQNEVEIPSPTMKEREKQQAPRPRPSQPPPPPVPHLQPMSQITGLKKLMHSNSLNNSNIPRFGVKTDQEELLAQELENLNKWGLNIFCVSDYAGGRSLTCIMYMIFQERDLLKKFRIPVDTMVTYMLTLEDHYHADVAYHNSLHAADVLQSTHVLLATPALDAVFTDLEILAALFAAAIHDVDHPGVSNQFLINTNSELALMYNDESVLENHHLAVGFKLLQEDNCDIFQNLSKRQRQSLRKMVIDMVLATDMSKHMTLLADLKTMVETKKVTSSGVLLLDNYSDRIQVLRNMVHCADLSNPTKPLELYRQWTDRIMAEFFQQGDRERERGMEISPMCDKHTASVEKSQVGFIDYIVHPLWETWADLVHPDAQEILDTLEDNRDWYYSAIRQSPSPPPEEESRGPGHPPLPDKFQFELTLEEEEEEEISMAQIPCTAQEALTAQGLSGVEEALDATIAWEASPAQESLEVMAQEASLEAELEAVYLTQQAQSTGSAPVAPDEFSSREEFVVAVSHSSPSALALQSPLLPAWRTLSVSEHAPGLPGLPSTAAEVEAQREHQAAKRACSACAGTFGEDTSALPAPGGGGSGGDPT

IC50 [1] [nM]	IC50 ([2]; Homo sapiens, HCT-116, HCT-116, 10 μM bleomycin) [nM]	microsomal CLint [3] [µL/min/mg]	IC50 [4] [nM]	IC50 [5, 7] [µM]	IC50 ([6]; Homo sapiens) [µM]	IC50 ([2]; HCT-116, 10 μM bleomycin) [nM]	CLint (rat) ([3]; rat microsomes) [μl/min/mg protein]	IC50 ([5]; HCT-116) [µM]	IC50 [6] [µM]	Compound
1100	86	19	1400	7.9	> 30					COc1cc2ncc3c(c2cc1-c1cn(C)nc1C)n(-c1c(F)cncc1OC)c(=O)n3C [Compound Y, 8-(1,3-dimethyl-1H-pyrazol-4-yl)-1-(3-fluoro-5-methoxypyridin-4-yl)-7-methoxy-3-methyl-1,3-dihydroimidazo[4,5-c]quinolin-2-one, reference compound]
930			3900			76	< 10	> 30	> 30	COc1cc2ncc3c(c2cc1-c1cn(C)nc1C)n(-c1c(F)cncc1OC)c(=O)n3C (single isomer, unassigned) [Compound 2, 8-(1,3-Dimethyl-1H-pyrazol-4-yl)-1-(Ra)-(3-fluoro-5-methoxy-pyridin-4-yl)-7-methoxy-3-methyl-1,3-dihydro-imidazo[4,5-c]quinolin-2-one]
5200		< 10	2200	≥ 24	> 30	13				COc1cc2ncc3c(c2cc1-c1cn(C)nc1C)n(-c1c(F)cncc1OC)c(=O)n3C (single isomer, unassigned) [Compound 1, 8-(1,3-Dimethyl-1H-pyrazol-4-yl)-1-(Sa)-(3-fluoro-5-methoxy-pyridin-4-yl)-7-methoxy-3-methyl-1,3-dihydro-imidazo[4,5-c]quinolin-2-one]
